Biological target: T1, Csx1 (SisCsx1, SiCsx1) (Saccharolobus islandicus, UniProt F0NE21)
T1 sequence (F0NE21 1-454): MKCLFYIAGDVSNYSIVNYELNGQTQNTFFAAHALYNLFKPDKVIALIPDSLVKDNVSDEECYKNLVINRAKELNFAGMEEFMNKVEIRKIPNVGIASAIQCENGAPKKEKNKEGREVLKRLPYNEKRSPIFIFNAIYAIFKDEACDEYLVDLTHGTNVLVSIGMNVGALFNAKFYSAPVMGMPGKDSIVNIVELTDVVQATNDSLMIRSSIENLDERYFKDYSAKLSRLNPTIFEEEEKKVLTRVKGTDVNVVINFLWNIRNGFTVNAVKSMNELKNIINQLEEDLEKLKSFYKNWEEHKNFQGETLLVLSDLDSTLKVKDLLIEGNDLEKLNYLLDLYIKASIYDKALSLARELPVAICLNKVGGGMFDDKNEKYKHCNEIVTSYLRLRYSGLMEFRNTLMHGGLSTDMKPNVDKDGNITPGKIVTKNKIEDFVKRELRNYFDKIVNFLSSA
Test: RNA
Assay type: biochemical

EC50: 7.4 nM
SMILES: Nc1ncnc2c1ncn2[C@@H]1O[C@@H]2COP(=O)(O)O[C@H]3[C@@H](O)[C@H](n4cnc5c(N)ncnc54)O[C@@H]3COP(=O)(O)O[C@H]3[C@@H](O)[C@H](n4cnc5c(N)ncnc54)O[C@@H]3COP(=O)(O)O[C@H]3[C@@H](O)[C@H](n4cnc5c(N)ncnc54)O[C@@H]3COP(=O)(O)O[C@H]2[C@H]1O [c-A4]
